This note sets out measurements from ChEMBL document CHEMBL2010741, “Synthesis and evaluation of a new series of 1'-cyclobutyl-6-(4-piperidyloxy)spiro[benzopyran-2,4'-piperidine] derivatives as high affinity and selective histamine-3 receptor (H3R) antagonists” (Bioorg Med Chem Lett, 2012).

By Ki is commonly meant the equilibrium dissociation constant of an inhibitor or competing ligand from its target. Read a low Ki as higher affinity. The half-life is how long it takes for the measured level to halve. Lower therefore signals rapid decline. Usually IC50 stands for the midpoint of a concentration-inhibition curve. As a reminder, the Vd is a proportionality between amount in the body and measured concentration, not a real space. Broadly, the clearance is the rate of elimination divided by the concentration. A low value points to inefficient removal. The term AUC(0-inf) denotes total exposure, with the tail of the curve extrapolated. The low end stands for less exposure, the high end for more exposure. One may read the Cmax as the peak of the concentration-time curve. In general, bioavailability refers to the share of a dose that reaches the circulation, judged against a reference dose that is usually intravenous. Low values mean little systemic uptake, high ones much systemic uptake. The term solubility denotes the dissolved amount per volume that the medium holds.

Structures are written as SMILES. Bounds are passed on as bounds.

Histamine H3 receptor (Rattus norvegicus, UniProt Q9QYN8), sequence (Q9QYN8 whole entry): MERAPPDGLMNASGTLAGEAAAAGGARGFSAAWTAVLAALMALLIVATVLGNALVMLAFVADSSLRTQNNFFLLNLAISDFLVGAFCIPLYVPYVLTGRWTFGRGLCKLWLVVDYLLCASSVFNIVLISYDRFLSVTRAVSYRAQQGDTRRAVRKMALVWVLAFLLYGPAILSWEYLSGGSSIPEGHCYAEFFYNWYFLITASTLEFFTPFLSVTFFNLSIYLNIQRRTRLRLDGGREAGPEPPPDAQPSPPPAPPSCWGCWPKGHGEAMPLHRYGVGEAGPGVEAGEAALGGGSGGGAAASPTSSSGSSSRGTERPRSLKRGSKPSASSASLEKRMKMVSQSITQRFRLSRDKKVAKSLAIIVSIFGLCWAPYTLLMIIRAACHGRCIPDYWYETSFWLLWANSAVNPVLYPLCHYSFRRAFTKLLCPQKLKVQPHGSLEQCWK
Cytochrome P450 2C9, sequence (P11712 whole entry): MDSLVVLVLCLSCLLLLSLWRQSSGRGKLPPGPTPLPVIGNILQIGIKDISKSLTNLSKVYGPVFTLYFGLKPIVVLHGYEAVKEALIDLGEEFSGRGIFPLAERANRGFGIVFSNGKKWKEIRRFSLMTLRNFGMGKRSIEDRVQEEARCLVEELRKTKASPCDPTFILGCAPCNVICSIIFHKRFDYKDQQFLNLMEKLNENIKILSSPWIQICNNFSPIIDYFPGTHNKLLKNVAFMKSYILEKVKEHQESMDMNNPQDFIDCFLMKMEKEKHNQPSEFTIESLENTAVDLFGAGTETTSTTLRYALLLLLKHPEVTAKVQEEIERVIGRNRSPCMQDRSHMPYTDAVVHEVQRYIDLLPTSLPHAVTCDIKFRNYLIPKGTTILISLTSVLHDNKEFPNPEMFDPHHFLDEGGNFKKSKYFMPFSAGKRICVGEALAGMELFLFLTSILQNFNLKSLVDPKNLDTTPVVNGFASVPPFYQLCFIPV
Cytochrome P450 2C19, sequence (P33261 whole entry): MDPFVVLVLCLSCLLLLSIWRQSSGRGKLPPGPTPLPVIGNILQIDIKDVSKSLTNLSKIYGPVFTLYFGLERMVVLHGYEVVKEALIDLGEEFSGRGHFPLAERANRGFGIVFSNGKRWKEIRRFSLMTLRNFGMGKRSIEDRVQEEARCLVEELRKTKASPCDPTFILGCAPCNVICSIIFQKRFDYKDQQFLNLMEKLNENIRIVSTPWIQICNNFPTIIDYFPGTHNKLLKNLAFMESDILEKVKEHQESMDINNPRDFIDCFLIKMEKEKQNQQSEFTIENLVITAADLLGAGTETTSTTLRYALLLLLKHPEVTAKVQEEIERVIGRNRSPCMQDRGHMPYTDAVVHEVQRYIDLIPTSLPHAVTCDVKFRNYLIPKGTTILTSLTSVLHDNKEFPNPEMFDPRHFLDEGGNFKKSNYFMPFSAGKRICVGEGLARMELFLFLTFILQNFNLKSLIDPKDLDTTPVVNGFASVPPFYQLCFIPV

The target of the first series is Histamine H3 receptor (Homo sapiens, UniProt Q9Y5N1). Put plainly: Displacement of [3H]-N-alpha-methylhistamine from human cloned histamine H3 receptor expressed in CHO cells. Type of series: cell-based.
Histamine H3 receptor (Homo sapiens, UniProt Q9Y5N1), sequence (Q9Y5N1 whole entry): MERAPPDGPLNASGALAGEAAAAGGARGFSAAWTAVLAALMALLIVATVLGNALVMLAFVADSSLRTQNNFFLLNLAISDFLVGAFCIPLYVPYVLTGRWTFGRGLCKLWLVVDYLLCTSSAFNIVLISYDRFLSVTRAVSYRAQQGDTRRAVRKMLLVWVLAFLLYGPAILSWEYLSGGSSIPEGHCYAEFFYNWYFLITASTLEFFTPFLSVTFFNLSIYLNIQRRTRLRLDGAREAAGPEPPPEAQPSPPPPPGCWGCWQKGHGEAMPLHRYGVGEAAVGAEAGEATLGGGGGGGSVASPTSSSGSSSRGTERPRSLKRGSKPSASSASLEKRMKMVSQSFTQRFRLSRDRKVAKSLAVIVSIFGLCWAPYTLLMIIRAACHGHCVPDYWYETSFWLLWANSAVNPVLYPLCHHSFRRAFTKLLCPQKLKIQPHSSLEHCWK
Conditions: not given
A general note: Displacement assays read how much labelled ligand stays bound in the presence of the test substance.
On to `CCS(=O)(=O)N1CCC(Oc2ccc3c(c2)CCC2(CCN(C4CCC4)CC2)O3)CC1`, for which the affinity, expressed as Ki, was 0.007 µM.

Consider `c1cc2c(cc1OC1CCNCC1)CCC1(CCN(C3CCC3)CC1)O2`, for which the Ki worked out at 0.003 µM.

For the compound `O=C(C1CC1)N1CCC(Oc2ccc3c(c2)CCC2(CCN(C4CCC4)CC2)O3)CC1`, the affinity, expressed as Ki, was 0.006 µM.

`CC(=O)N1CCC(Oc2ccc3c(c2)CCC2(CCN(C4CCC4)CC2)O3)CC1`: the Ki was found to be 0.004 µM.

`CC(C)(C)OC(=O)N1CCC(Oc2ccc3c(c2)CCC2(CCN(C4CCC4)CC2)O3)CC1`: the Ki came out at 0.047 µM.

The next series concerns the target Histamine H3 receptor (Rattus norvegicus, UniProt Q9QYN8). Put plainly: Displacement of [3H]N-alpha-methylhistamine from rat cloned histamine H3 receptor expressed in CHO cells. Format: cell-based.
Conditions: not given
As for `CCS(=O)(=O)N1CCC(Oc2ccc3c(c2)CCC2(CCN(C4CCC4)CC2)O3)CC1`, the Ki was found to be 0.024 µM.

Take `c1cc2c(cc1OC1CCNCC1)CCC1(CCN(C3CCC3)CC1)O2`: the affinity corresponds to a Ki of 0.006 µM.

Regarding `O=C(C1CC1)N1CCC(Oc2ccc3c(c2)CCC2(CCN(C4CCC4)CC2)O3)CC1`, affinity was put at a Ki of 0.016 µM.

For the compound `CC(=O)N1CCC(Oc2ccc3c(c2)CCC2(CCN(C4CCC4)CC2)O3)CC1`, the Ki turned out to be 0.01 µM.

`CC(C)(C)OC(=O)N1CCC(Oc2ccc3c(c2)CCC2(CCN(C4CCC4)CC2)O3)CC1` registered a Ki of 0.04 µM.

Test system in another series: not listed separately
The series can be described thus: Half life in mouse liver microsomes. Format: ADME, Microsome.
Conditions: not given
In general terms: Liver microsomes are a subcellular fraction often used to study metabolism.
`O=C(C1CC1)N1CCC(Oc2ccc3c(c2)CCC2(CCN(C4CCC4)CC2)O3)CC1`: the half-life was above 40 min.

`CC(=O)N1CCC(Oc2ccc3c(c2)CCC2(CCN(C4CCC4)CC2)O3)CC1` came in with a half-life above 40 min.

Test system in the next series: not listed separately
The series can be described thus: Half life in rat liver microsomes.
Conditions: not given
Format: ADME, Microsome.
`O=C(C1CC1)N1CCC(Oc2ccc3c(c2)CCC2(CCN(C4CCC4)CC2)O3)CC1` came in with a half-life above 40 min.

`CC(=O)N1CCC(Oc2ccc3c(c2)CCC2(CCN(C4CCC4)CC2)O3)CC1` showed a half-life above 40 min.

Test system in a further series: not listed separately
Put plainly: Half life in dog liver microsomes. Type of series: ADME, Canis lupus familiaris, Microsome.
Conditions: not given
`O=C(C1CC1)N1CCC(Oc2ccc3c(c2)CCC2(CCN(C4CCC4)CC2)O3)CC1`: the half-life is above 40 min.

`CC(=O)N1CCC(Oc2ccc3c(c2)CCC2(CCN(C4CCC4)CC2)O3)CC1` gave a half-life above 40 min.

Test system in another series: not listed separately
The series can be described thus: Half life in human liver microsomes. Type of series: ADME, Microsome.
Conditions: not given
Consider `O=C(C1CC1)N1CCC(Oc2ccc3c(c2)CCC2(CCN(C4CCC4)CC2)O3)CC1`, for which the half-life was above 40 min.

On to `CC(=O)N1CCC(Oc2ccc3c(c2)CCC2(CCN(C4CCC4)CC2)O3)CC1`, for which the half-life is above 40 min.

In the next series the target is T1, Cytochrome P450 1A2 (Homo sapiens, UniProt P05177).
T1 sequence (P05177 whole entry): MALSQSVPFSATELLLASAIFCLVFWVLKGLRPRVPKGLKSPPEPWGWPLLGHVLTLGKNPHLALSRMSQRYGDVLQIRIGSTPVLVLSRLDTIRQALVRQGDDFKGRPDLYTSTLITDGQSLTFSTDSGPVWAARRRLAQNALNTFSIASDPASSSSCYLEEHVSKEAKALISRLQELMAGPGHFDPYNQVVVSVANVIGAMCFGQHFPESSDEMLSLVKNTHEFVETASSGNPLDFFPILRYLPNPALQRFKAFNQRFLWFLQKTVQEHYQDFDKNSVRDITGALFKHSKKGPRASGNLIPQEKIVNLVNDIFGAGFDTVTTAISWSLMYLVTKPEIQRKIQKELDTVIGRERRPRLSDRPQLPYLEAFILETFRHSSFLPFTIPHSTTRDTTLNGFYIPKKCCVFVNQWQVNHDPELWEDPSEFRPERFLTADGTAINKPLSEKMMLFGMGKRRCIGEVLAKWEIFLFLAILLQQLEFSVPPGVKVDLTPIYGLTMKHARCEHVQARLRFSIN
The series can be described thus: Inhibition of CYP1A2.
Conditions: not given
Type of series: ADME.
Turning to `O=C(C1CC1)N1CCC(Oc2ccc3c(c2)CCC2(CCN(C4CCC4)CC2)O3)CC1`, the concentration for half-maximal inhibition (IC50) was above 30 µM.

Compound `CC(=O)N1CCC(Oc2ccc3c(c2)CCC2(CCN(C4CCC4)CC2)O3)CC1` yielded an IC50 above 30 µM.

The next series has as its target Cytochrome P450 2C9 (Homo sapiens, UniProt P11712). The series can be described thus: Inhibition of CYP2C9. Type of series: ADME.
Conditions: not given
Consider `O=C(C1CC1)N1CCC(Oc2ccc3c(c2)CCC2(CCN(C4CCC4)CC2)O3)CC1`, for which the IC50 was above 30 µM.

For `CC(=O)N1CCC(Oc2ccc3c(c2)CCC2(CCN(C4CCC4)CC2)O3)CC1`, the IC50 was above 30 µM.

The next series has as its target Cytochrome P450 2C19 (Homo sapiens, UniProt P33261). Put plainly: Inhibition of CYP2C19. Type of series: ADME.
Conditions: not given
Consider `O=C(C1CC1)N1CCC(Oc2ccc3c(c2)CCC2(CCN(C4CCC4)CC2)O3)CC1`, for which the IC50 was above 30 µM.

With `CC(=O)N1CCC(Oc2ccc3c(c2)CCC2(CCN(C4CCC4)CC2)O3)CC1`, the IC50 was above 30 µM.

A further series deals with Cytochrome P450 2D6 (Homo sapiens, UniProt P10635). The series can be described thus: Inhibition of CYP2D6.
Cytochrome P450 2D6, sequence (P10635 whole entry): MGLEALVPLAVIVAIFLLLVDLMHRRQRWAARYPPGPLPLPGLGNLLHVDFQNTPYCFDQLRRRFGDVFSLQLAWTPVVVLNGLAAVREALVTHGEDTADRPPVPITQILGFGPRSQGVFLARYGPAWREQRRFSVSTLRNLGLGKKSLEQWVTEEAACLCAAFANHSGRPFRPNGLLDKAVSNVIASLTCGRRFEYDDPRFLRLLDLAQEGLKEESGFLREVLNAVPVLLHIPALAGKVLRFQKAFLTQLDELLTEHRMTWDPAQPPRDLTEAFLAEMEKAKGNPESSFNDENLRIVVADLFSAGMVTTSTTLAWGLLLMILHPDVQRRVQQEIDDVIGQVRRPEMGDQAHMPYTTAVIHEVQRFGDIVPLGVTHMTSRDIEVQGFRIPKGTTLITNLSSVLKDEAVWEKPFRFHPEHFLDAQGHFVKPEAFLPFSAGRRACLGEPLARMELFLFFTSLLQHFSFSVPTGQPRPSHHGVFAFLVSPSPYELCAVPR
Conditions: not given
Format: ADME.
With `O=C(C1CC1)N1CCC(Oc2ccc3c(c2)CCC2(CCN(C4CCC4)CC2)O3)CC1`, the IC50 was above 30 µM.

In turn, `CC(=O)N1CCC(Oc2ccc3c(c2)CCC2(CCN(C4CCC4)CC2)O3)CC1` came in with an IC50 above 30 µM.

For a further series, the target named is Cytochrome P450 3A4 (Homo sapiens, UniProt P08684). The series can be described thus: Inhibition of CYP3A4. Format: ADME.
Cytochrome P450 3A4, sequence (P08684 whole entry): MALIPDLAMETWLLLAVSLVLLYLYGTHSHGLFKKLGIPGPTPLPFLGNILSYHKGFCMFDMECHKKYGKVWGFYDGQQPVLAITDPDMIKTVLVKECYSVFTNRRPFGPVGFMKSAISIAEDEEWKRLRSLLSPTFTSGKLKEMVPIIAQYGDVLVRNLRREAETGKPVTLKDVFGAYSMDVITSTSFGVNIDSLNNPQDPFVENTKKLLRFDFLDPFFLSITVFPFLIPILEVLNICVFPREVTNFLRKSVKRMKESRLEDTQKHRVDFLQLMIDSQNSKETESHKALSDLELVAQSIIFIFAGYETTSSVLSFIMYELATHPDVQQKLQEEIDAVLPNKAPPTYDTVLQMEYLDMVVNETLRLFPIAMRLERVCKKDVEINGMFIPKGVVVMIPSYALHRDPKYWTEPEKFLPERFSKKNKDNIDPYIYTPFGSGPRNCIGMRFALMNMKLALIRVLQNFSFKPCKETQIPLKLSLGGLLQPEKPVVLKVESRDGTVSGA
Conditions: not given
`O=C(C1CC1)N1CCC(Oc2ccc3c(c2)CCC2(CCN(C4CCC4)CC2)O3)CC1` yielded an IC50 above 30 µM.

Consider `CC(=O)N1CCC(Oc2ccc3c(c2)CCC2(CCN(C4CCC4)CC2)O3)CC1`, for which the IC50 was above 30 µM.

Test system in another series: not listed separately
Put plainly: Half life in rat at 1 mg/kg, iv. The note with it: in vivo. Further details: dose 1 mg/kg, route intravenous. Format: ADME, organism-based.
With `O=C(C1CC1)N1CCC(Oc2ccc3c(c2)CCC2(CCN(C4CCC4)CC2)O3)CC1`, the half-life was 96 min.

Test system in the next series: not listed separately
The series can be described thus: Volume of distribution in rat at 1 mg/kg, iv. Further details: dose 1 mg/kg, route intravenous. Format: ADME, organism-based. To be noted: in vivo.
In turn, `O=C(C1CC1)N1CCC(Oc2ccc3c(c2)CCC2(CCN(C4CCC4)CC2)O3)CC1` returned a Vd of 2.7 L/kg.

Test system in the next series: not listed separately
Put plainly: Clearance in rat at 1 mg/kg, iv. Format: ADME, organism-based. Also on record: dose 1 mg/kg, route intravenous. The note with it: in vivo.
The compound `O=C(C1CC1)N1CCC(Oc2ccc3c(c2)CCC2(CCN(C4CCC4)CC2)O3)CC1` showed a clearance of 1.2 L/h/kg.

Test system in the next series: not listed separately
Put plainly: AUC (infinity) in rat at 5 mg/kg, po. Type of series: ADME, organism-based. The note with it: plasma. Further details: time infinity, dose 5 mg/kg, route oral.
With `O=C(C1CC1)N1CCC(Oc2ccc3c(c2)CCC2(CCN(C4CCC4)CC2)O3)CC1`, the AUC(0-inf) is 0.359 µg·h/mL.

Test system in a further series: not listed separately
The series can be described thus: Cmax in rat at 5 mg/kg, po. Format: ADME, organism-based. Further details: dose 5 mg/kg, route oral. The note with it: in vivo.
Take `O=C(C1CC1)N1CCC(Oc2ccc3c(c2)CCC2(CCN(C4CCC4)CC2)O3)CC1`: the Cmax came out at 0.071 µg/mL.

Test system in a further series: not listed separately
Put plainly: Oral bioavailability in rat at 5 mg/kg. Type of series: ADME, organism-based. The note with it: in vivo.
`O=C(C1CC1)N1CCC(Oc2ccc3c(c2)CCC2(CCN(C4CCC4)CC2)O3)CC1` registered a bioavailability of 8%.

Test system in a further series: not listed separately
Put plainly: Ratio of drug level in brain to plasma of rat at 10 mg/kg, ip after 1 hr. Type of series: ADME, organism-based. To be noted: read-out: BPR. Also on record: dose 10 mg/kg, route intraperitoneal.
Turning to `O=C(C1CC1)N1CCC(Oc2ccc3c(c2)CCC2(CCN(C4CCC4)CC2)O3)CC1`, the Kp at 1 h was found to be 2.3.

Test system in the next series: not listed separately
Put plainly: Aqueous solubility of the compound at pH 7.4. Type of series: physicochemical. The note with it: buffer.
Turning to `O=C(C1CC1)N1CCC(Oc2ccc3c(c2)CCC2(CCN(C4CCC4)CC2)O3)CC1`, the solubility is above 0.1 mg/mL.
